Measurements: publication PMC6556873, “Rapid Covalent-Probe Discovery by Electrophile-Fragment Screening” (Journal of the American Chemical Society, 2019)
Where two headings read alike, the source gives them in different places.

Assays:
in vitro [1] = assay: in vitro; parameters: species or system CCD841, HEK293; conditions: human, hb2 cells, read-out: HB-2 Cells Viability (%)
in vitro [2] = assay: in vitro; parameters: species or system HB2, CCD841; conditions: human, hek293 cells
PCAF = target: T1, PCAF (Homo sapiens, UniProt Q92831); parameters: Intact protein LC/MS covalent labelling, fragments in pools of five, 200 uM each, 4 °C; conditions: 24 h, 4 °C, pool of five; 200 µM; covalent
T1 construct: gene KAT2B
Procedure: (§1) Incubations were performed at 200 μM for each compound and 2 μM of protein (10 μM for BSA) for 24 h at 4 °C with moderate shaking. Incubation buffers varied among proteins (PBS pH 7.4 for QSOX1 and BSA; 10 mM HEPES pH 7.5, 0.3 M NaCl, 0.5 mM TCEP for PCAF, UPS8, and NUDT7; […]; 10 mM Na2HPO4 pH 7.5 100 mM NaCl 5 mM β-mercaptoethanol for NV3CP; 20 mM Na phosphate pH 7.5 for NNMT; […]. The reaction was stopped by quenching with formic acid, 0.4% final concentration. Each protein was incubated with the electrophilic library in pools of five compounds per well. The pool’s composition maximized the difference in mass between fragments in the same well. Incubations were performed with each fragment at 200 μM, for 24 h at 4 °C, to allow the screening of proteins that are not stable for long time periods at higher temperatures. Following incubation, we used intact protein [compound left out] chromatography/mass spectrometry (LC/MS) to identify the fragments and quantify their labeling (Figure 3A). […] There was good agreement between the percent of labeling of NUDT7 by 100 random individual compounds and that obtained in pools of five (R^2=0.78; Figure S6 and Data set 2 in the Supporting Information).

OTUB2 (OTUB2A) = target: T2, OTUB2 (OTUB2A) (Homo sapiens, UniProt Q96DC9); parameters: Intact protein LC/MS covalent labelling, fragments in pools of five, 200 uM each, 4 °C; conditions: 24 h, 4 °C, pool of five; 200 µM; covalent
T2 construct: full length residues 1-234, E. coli BL21(DE3)-R3, His tag removed by TEV, construct 27312 Da
T2 sequence (Q96DC9 1-234): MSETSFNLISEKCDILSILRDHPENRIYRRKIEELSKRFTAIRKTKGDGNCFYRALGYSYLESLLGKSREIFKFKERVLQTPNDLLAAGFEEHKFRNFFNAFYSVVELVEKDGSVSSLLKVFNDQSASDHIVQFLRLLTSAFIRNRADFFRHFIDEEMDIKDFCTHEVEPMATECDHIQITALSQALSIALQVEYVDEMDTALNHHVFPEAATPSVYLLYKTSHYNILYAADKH
Procedure: as §1

NUDT7 = target: T3, NUDT7 (Homo sapiens, UniProt P0C024); parameters: Intact protein LC/MS covalent labelling, fragments in pools of five, 200 uM each, 4 °C; conditions: 24 h, 4 °C, pool of five; 200 µM; covalent
T3 construct: residues 14-235, E. coli, pNIC28-Bsa4, N-terminal His6 tag removed by TEV, construct 26672 Da
Procedure: as §1

BSA = target: T4, BSA (Bos taurus, UniProt P02769); parameters: Intact protein LC/MS covalent labelling, fragments in pools of five, 200 uM each, 4 °C; conditions: 24 h, 4 °C, pool of five; 200 µM; covalent
T4 construct: gene ALB
Procedure: as §1

in vitro [3] = assay: in vitro; parameters: species or system HB2, HEK293; conditions: human, ccd841 cells

T4 sequence (P02769 whole entry, the tested form may be a part): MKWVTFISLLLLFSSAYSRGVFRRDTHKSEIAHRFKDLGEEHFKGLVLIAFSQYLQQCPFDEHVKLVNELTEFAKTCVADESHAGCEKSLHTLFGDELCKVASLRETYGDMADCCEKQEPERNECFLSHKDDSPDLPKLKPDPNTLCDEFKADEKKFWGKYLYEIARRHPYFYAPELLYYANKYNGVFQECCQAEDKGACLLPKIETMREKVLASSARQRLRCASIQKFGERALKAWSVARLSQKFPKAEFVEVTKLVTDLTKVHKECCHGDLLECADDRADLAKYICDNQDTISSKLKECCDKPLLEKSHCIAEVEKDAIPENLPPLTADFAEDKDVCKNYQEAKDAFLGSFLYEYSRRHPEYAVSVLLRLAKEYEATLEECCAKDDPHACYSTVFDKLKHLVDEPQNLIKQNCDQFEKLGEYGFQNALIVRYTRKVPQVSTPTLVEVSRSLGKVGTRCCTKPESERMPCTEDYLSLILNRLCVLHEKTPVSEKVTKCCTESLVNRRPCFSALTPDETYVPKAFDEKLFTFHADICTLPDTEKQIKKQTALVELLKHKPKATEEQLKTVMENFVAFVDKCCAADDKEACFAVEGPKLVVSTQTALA
T1 sequence (Q92831 whole entry, the tested form may be a part): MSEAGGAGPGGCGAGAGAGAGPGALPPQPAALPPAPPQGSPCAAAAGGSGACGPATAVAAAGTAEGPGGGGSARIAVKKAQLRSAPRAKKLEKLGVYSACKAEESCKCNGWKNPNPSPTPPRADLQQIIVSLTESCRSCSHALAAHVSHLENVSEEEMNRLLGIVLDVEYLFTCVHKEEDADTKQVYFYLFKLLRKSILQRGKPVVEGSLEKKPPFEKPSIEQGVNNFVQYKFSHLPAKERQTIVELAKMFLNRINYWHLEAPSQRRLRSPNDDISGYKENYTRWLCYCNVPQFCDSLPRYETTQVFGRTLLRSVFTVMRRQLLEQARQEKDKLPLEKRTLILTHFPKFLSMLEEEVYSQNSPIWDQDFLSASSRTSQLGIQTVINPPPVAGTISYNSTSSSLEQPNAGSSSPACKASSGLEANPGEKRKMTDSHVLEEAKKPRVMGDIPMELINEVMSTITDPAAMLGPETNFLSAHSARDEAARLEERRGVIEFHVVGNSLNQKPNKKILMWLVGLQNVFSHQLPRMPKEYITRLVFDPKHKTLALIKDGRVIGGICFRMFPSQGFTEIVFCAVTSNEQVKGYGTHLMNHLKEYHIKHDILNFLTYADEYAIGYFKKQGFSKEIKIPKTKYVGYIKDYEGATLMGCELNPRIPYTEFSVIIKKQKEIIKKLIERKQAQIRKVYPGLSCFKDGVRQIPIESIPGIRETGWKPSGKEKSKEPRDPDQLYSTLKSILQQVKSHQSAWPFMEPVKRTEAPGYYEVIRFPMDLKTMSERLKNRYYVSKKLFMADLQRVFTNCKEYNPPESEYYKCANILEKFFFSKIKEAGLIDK
T3 sequence (P0C024 14-235): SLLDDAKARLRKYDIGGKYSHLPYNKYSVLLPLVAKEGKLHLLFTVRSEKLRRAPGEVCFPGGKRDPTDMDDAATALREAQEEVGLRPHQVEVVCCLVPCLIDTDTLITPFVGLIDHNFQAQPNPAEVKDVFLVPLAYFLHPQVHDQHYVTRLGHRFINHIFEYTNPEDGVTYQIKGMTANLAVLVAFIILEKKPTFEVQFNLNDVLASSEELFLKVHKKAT

| SMILES | PCAF (PCAF) | OTUB2 (OTUB2 (OTUB2A)) | NUDT7 (NUDT7) | BSA (BSA) | viability at 48 h, 10 µM (in vitro [1]) [%] | viability at 48 h, 10 µM (in vitro [2]) [%] | viability at 48 h, 10 µM (in vitro [3]) [%] |
| --- | --- | --- | --- | --- | --- | --- | --- |
| O=C(CCl)Nc1ccc(N2CCOCC2)cc1 [PCM-0102582] | 0 | 0.54 | 0 | 0 | 74.9 | 57.2 | 79.5 |
| C=CC(=O)Nc1sc2c(c1C#N)CCCC2 [PCM-0102455] | 0 | 0 | 1 | 0 | 64.1 | 81.4 | 72.5 |
| O=C(CCl)NCC#Cc1cccc(C(F)(F)F)c1 [PCM-0103011] | 0 | 0.84 | 0 | 0 | 56.8 | 52.5 | 77.4 |
| Cc1ccc(-c2csc(NC(=O)CCl)n2)cc1 [PCM-0102168] | 0 | 0 | 0.4 | 0 | 5.5 | 5.5 | 67.9 |
| O=C1CC(C(F)(F)F)N(C(=O)CCl)c2ccccc2N1 (stereo not drawn) [PCM-0102363] | 0 | 0 | 0.28 | 0.1 | 59.3 | 40.4 | 74.6 |
| CC(C)(C)C(=O)NNC(=O)CCl [PCM-0102855] | 0 | 0 | 0.07 | 0 | 98.2 | 87.8 | 93.1 |
| O=C(CCl)Nc1cc(F)ccc1F [PCM-0102284] | 0 | 0.28 | 0 | 0 | 38.2 | 17.7 | 58.8 |
| CNC(=O)C1CCN(C(=O)CCl)CC1 [PCM-0102815] | 0 | 0.08 | 0 | 0 | 92.2 | 77.1 | 95.1 |
| Cl.O=C(CCl)N1CCN(Cc2ccsc2)CC1 [PCM-0102739] | 0 | 0 | 0.07 | 0 | 55.2 | 42.7 | 85.9 |
| O=C(CCl)NNC(=O)c1ccco1 [PCM-0102985] | 0 | 0.27 | 0 | 0.2 | 96.9 | 100 | 89.7 |
| N#CSc1ccc(NC(=O)CCl)c(Br)c1 [PCM-0102466] | 0 | 0 | 0 | 0 | 23.2 | 48.4 | 29.3 |
| O=C(CCl)N1CCc2cc(S(=O)(=O)N3CCCCC3)ccc21 [PCM-0102705] | 0 | 0 | 0 | 0 | 4.2 | 51.1 | 28.8 |
| O=C(CCl)Nc1c(Cl)cc(Cl)cc1C(=O)O [PCM-0102576] | 0 | 0 | 0 | 0 | 100 | 100 | 105 |
| C=CC(=O)N1CC(Oc2ccc(C#N)cc2)C1 [PCM-0103059] | 0 | 0.07 | 0 | 0 | 98.1 | 73.3 | 90.8 |
| C=CC(=O)NC1CCC(N2CCCS2(=O)=O)CC1 (stereo not drawn) [PCM-0102568] | 0 | 0 | 0 | 0 | 107 | 78 | 93.8 |

Second part, led by results:

| PCAF (PCAF) | OTUB2 (OTUB2 (OTUB2A)) | NUDT7 (NUDT7) | BSA (BSA) | SMILES | viability at 48 h, 10 µM (in vitro [1]) [%] | viability at 48 h, 10 µM (in vitro [2]) [%] | viability at 48 h, 10 µM (in vitro [3]) [%] |
| --- | --- | --- | --- | --- | --- | --- | --- |
| 0 | 0 | 0 | 0 | CC1CCN(C(=O)CCl)CC1 [PCM-0102945] | 103 | 88.3 | 108 |
| 0 | 0 | 0.2 | 0 | Cc1ccc(C2=NN(C(=O)CCl)C(c3ccco3)C2)o1 (stereo not drawn) [PCM-0102102] | 9.4 | 1.6 | 12.7 |
| 0 | 0 | 0 | 0.11 | Cc1cc(N2CCN(C(=O)CCl)CC2)nc(C(C)C)n1 [PCM-0102638] | 97.7 | 89.8 | 107 |
| 0 | 0 | 0.09 | 0 | Cc1ccc(CN(C)C(=O)CCl)cc1 [PCM-0103017] | 67.7 | 58.2 | 73.9 |
| 0 | 0 | 0 | 0 | CN(C(=O)CCl)C1=CCCC1 [PCM-0102869] | 111 | 101 | 110 |
| 0 | 0 | 0.13 | 0 | O=C(CCl)N1CCN(S(=O)(=O)c2cccc(F)c2)CC1 [PCM-0102327] | 5.2 | 8.1 | 45.3 |
| 0 | 0 | 0.12 | 0 | C=CC(=O)Nc1ccc(Cl)cc1 [PCM-0102537] | 95.5 | 81.5 | 89.3 |
| 0 | 0.13 | 0 | 0 | CCOC(=O)C1CCCCN1C(=O)CCl (stereo not drawn) [PCM-0102937] | 90.3 | 71.9 | 89.4 |
| 0 | 0 | 0.11 | 0 | O=C(CCl)N1c2ccccc2OCC1c1ccccc1 (stereo not drawn) [PCM-0102266] | 56.8 | 52.1 | 57.5 |
| 0 | 0.48 | 0 | 0 | Cl.O=C(CCl)Nc1ccc(N2CCCC2)cc1 [PCM-0102670] | 35 | 30.3 | 41.8 |
| 0 | 0.12 | 0.09 | 0 | Cc1cc(S(N)(=O)=O)cc(NC(=O)CCl)c1C [PCM-0102165] | 34.5 | 8.3 | 61.3 |
| 0 | 0 | 0.06 | 0.2 | CC(=O)N1CCN(C(=O)CCl)CC1 [PCM-0102535] | 85.7 | 37.6 | 82.8 |
